Source: article PMC4948833, “A Sensitive and Robust High-Throughput Screening Assay for Inhibitors of the Chikungunya Virus nsP1 Capping Enzyme” (PLoS ONE, 2016)

Key:
[1] = tested on: CHIKV nsP1 guanylation activity; assay: Guanylation assay, covalent nsP1-GTP-680 formation, SDS-PAGE fluorescence; conditions: for Average POC: mean of replicates; for Average POC / Percent of Control: 100 μM analog, Fig 4 data; for Percent of Control: single replicates, scaled guanylation; for ability to inhibit nsP1 guanylation (in words): 100 μM of each GTP analog, Fig 4; for ability to inhibit nsP1 guanylation (in words) / effect on nsP1 guanylation activity (in words): 1 hour; for effect on nsP1 guanylation activity (in words): 100 μM GTP, 100 μM SAM or both, Fig 2; for % of control, mean of replicates: mean of n = 3, 100 uM, given as fraction, Fig 2 data
[2] = tested on: CHIKV nsP1; assay: HTS validation potency repeatability, EC50 of GTP analogs in two independent FP runs
[3] = tested on: CHIKV nsP1 GTP binding site; assay: FP competition assay, displacement of GTP-Bodipy by GTP and RNA cap analogs (apparent Ki / EC50); conditions: for affinity for nsP1 GTP binding site / ability to compete with GTP-Bodipy (in words): FP competition, compared with GTP; for Ki: read-out: Average Ki, apparent Ki, 500 nM nsP1, 10 nM GTP-Bodipy, 1 hour 25°C

SMILES	Average POC [1]	Percent of Control ([1]; 100 µM)	Geometric Mean Potency ([2]; first set of rows)	Geometric Mean Potency ([2]; second set of rows)	affinity for nsP1 GTP binding site / ability to compete with GTP-Bodipy (in words) [3]	Ki [3]	ability to inhibit nsP1 guanylation (in words) [1]	also measured
Nc1ccn([C@@H]2O[C@H](COP(=O)(O)OP(=O)(O)OP(=O)(O)O)[C@@H](O)[C@H]2O)c(=O)n1 [CTP]	49.6579	48.7482	4.146	4.036	markedly decreased ability to outcompete GTP-Bodipy	6.94 µM	–	Percent of Control ([1]; listed as CTP2, 100 µM): 53.2419; Percent of Control ([1]; listed as CTP3, 100 µM): 46.9836
O=c1[nH]cnc2c1ncn2[C@@H]1O[C@H](COP(=O)(O)OP(=O)(O)OP(=O)(O)O)[C@@H](O)[C@H]1O [ITP]	74.6508	92.365	4.642	4.657	moderate decrease in affinity	1.91 µM	–	Percent of Control ([1]; listed as ITP2, 100 µM): 66.4533; Percent of Control ([1]; listed as ITP3, 100 µM): 65.1342
Nc1nc2c(ncn2[C@H]2CC[C@@H](COP(=O)(O)OP(=O)(O)OP(=O)(O)O)O2)c(=O)[nH]1 [ddGTP]	32.7576	32.7691	–	–	binding slightly better than the others	0.425 µM	greatest ability to in inhibit nsP1 guanylation activity	Percent of Control ([1]; listed as ddGTP2, 100 µM): 30.4919; Percent of Control ([1]; listed as ddGTP3, 100 µM): 35.0118
Nc1ncnc2c1ncn2[C@@H]1O[C@H](COP(=O)(O)OP(=O)(O)OP(=O)(O)O)[C@@H](O)[C@H]1O [ATP]	73.0319	67.4851	4.371	4.429	six fold affinity reduction	3.34 µM	–	Percent of Control ([1]; listed as ATP2, 100 µM): 83.2927; Percent of Control ([1]; listed as ATP3, 100 µM): 68.3179
C[n+]1cn([C@@H]2O[C@H](COP(=O)([O-])OP(=O)(O)OP(=O)(O)OC[C@H]3O[C@@H](n4cnc5c(N)ncnc54)[C@H](O)[C@@H]3O)[C@@H](O)[C@H]2O)c2nc(N)[nH]c(=O)c21 [me^7-GpppA]	75.4802	–	4.163	4.105	–	7 µM	–	Percent of Control ([1]; listed as m7-GpppA2, 100 µM): 75.9437; Percent of Control ([1]; listed as m7-GpppA3, 100 µM): 80.9779; Percent of Control ([1]; listed as m7-GpppA, 100 µM): 69.519
O=c1ccn([C@@H]2O[C@H](COP(=O)(O)OP(=O)(O)OP(=O)(O)O)[C@@H](O)[C@H]2O)c(=O)[nH]1 [UTP]	59.4237	68.643	4.3046	4.272	markedly decreased ability to outcompete GTP-Bodipy	4.46 µM	–	Percent of Control ([1]; listed as UTP2, 100 µM): 52.4244; Percent of Control ([1]; listed as UTP3, 100 µM): 57.2037
Nc1nc2c(ncn2[C@@H]2O[C@H](COP(=O)(O)OP(=O)(O)OP(=O)(O)O)[C@@H](O)[C@H]2O)c(=O)[nH]1 [GTP]	44.8021	42.0576	5.173	5.17	–	0.546 µM	greatest ability to in inhibit nsP1 guanylation activity	effect on nsP1 guanylation activity (in words) [1]: significantly diminished guanylation activity; % of control, mean of replicates [1]: 0.417; Percent of Control ([1]; listed as GTP2, 100 µM): 51.0432; Percent of Control ([1]; listed as GTP3, 100 µM): 41.3055; EC50 ([3]; read-out: EC50 concentration of GTP, FP displacement of GTP-Bodipy, used for midpoint signal wells): 6.8 µM
O=c1[nH]c(=O)c2ncn([C@@H]3O[C@H](COP(=O)(O)OP(=O)(O)OP(=O)(O)O)[C@@H](O)[C@H]3O)c2[nH]1 [XTP]	32.3662	34.0129	5.251	5.346	slightly higher affinity compared to GTP	0.402 µM	greatest ability to in inhibit nsP1 guanylation activity	Percent of Control ([1]; listed as XTP2, 100 µM): 27.443; Percent of Control ([1]; listed as XTP3, 100 µM): 35.6426
Nc1nc2c(ncn2[C@@H]2O[C@H](COP(=O)(O)OP(=O)(O)O)[C@@H](O)[C@H]2O)c(=O)[nH]1 [GDP]	78.8606	63.0295	4.329	4.21	slight decrease in affinity	4.89 µM	–	Percent of Control ([1]; listed as GDP2, 100 µM): 85.6756; Percent of Control ([1]; listed as GDP3, 100 µM): 87.8767
Nc1nc2c(ncn2[C@@H]2O[C@H](COP(=O)(O)OP(=O)(O)OP(=O)(O)OC[C@H]3O[C@@H](n4cnc5c(N)ncnc54)[C@H](O)[C@@H]3O)[C@@H](O)[C@H]2O)c(=O)[nH]1 [GpppA]	66.8805	57.9814	4.749	4.683	better competitor than me^7GpppA	1.89 µM	–	Percent of Control ([1]; listed as GpppA2, 100 µM): 71.1847; Percent of Control ([1]; listed as GpppA3, 100 µM): 71.4754
Cn1c[n+]([C@@H]2O[C@H](COP(=O)([O-])OP(=O)(O)OP(=O)(O)O)[C@@H](O)[C@H]2O)c2nc(N)[nH]c(=O)c21 [me^7-GTP]	37.4013	–	–	–	able to compete for the GTP binding site	1.55 µM	–	Percent of Control ([1]; listed as m7-GTP2, 100 µM): 37.3024; Percent of Control ([1]; listed as m7-GTP, 100 µM): 37.5003
Nc1nc2c(ncn2[C@@H]2O[C@H](CO)[C@@H](O)[C@H]2O)c(=O)[nH]1 [Guanosine]	109.076	100.679	–	–	not able to calculate a Ki	–	least ability to inhibit guanylation	Percent of Control ([1]; listed as Guanosine2, 100 µM): 132.685; Percent of Control ([1]; listed as Guanosine3, 100 µM): 93.8632
Nc1nc2c(ncn2[C@H]2C[C@H](O)[C@@H](COP(=O)(O)OP(=O)(O)OP(=O)(O)O)O2)c(=O)[nH]1 [dGTP]	25.7895	29.9486	5.4125	5.208	less affinity compared to the others	4.21 µM	greatest ability to in inhibit nsP1 guanylation activity	Percent of Control ([1]; listed as dGTP2, 100 µM): 23.146; Percent of Control ([1]; listed as dGTP3, 100 µM): 24.2738
C[S+](CC[C@H](N)C(=O)[O-])C[C@H]1O[C@@H](n2cnc3c(N)ncnc32)[C@H](O)[C@@H]1O (stereo partly drawn) [SAM, S-adenosyl methionine]	–	–	–	–	–	–	–	effect on nsP1 guanylation activity (in words) [1]: guanylation activity was maintained; % of control, mean of replicates [1]: 0.9908
Cn1c[n+]([C@@H]2O[C@H](COP(=O)(O)O)[C@@H](O)[C@H]2O)c2nc(N)[nH]c(=O)c21 [me^7-GMP]	102.357	–	–	–	very poor competitor	21.9 µM	least ability to inhibit guanylation	Percent of Control ([1]; listed as m7-GMP2, 100 µM): 87.9178; Percent of Control ([1]; listed as m7-GMP3, 100 µM): 97.473; Percent of Control ([1]; listed as m7-GMP, 100 µM): 121.679
